The compounds below were run on isolated rat soleus nerve-muscle preparations (assay: Measurement of force in an in vitro model: recovery of nerve-stimulated contractile force after tubocurarine). Settings: 40 min, 10 μM of test compound, after 40 mins of compound exposure, tubocurarine (115 nM) for 90 minutes, read-out: Point increase (%): percentage increase of initial force that was restored.
Experimental: In one aspect, the invention relates to a method for recovery of force in muscles with neuromuscular dysfunction, said method comprising administering a compound or a composition as defined herein to a subject in need thereof. The term “recovery of force in muscles with neuromuscular dysfunction” as used herein refers to the ability of a compound to recover contractile force in nerve-stimulated healthy rat muscle after exposure to submaximal concentration (115 nM) of tubocurarine for 90 minutes.
Recovery of force is quantified as the percentage of the force prior to tubocurarine that is recovered after addition of the compound. In one embodiment, said recovery of force is >5%, such as >10%, such as >15%, such as >20%, such as >25%, such as >30%, such as >35%.
The current disclosure relates to compounds that inhibit CIC-1 ion channels and increase muscle excitability and thereby improve muscle function in clinical conditions where muscle activation is failing. Such conditions result in loss of contractile function of skeletal muscle, weakness and excessive fatigue. In this series of experiments the compounds were tested for their ability to restore contractile function of isolated rat muscle when the neuromuscular transmission had been compromised akin to neuromuscular disorders.
Experimentally, soleus muscles from 4-5 week old rats were isolated with the motor nerve remaining attached. The nerve-muscle preparations were mounted in experimental setups that enabled electrical stimulation of the motor nerve. Stimulation of the motor nerve led to activation of the muscle fibres and ensuing force production that was recorded. The nerve-muscle preparations were also in these experiments incubated in the standard Krebs Ringer (see example 15) and the solution was heated to 30° C. and continuously equilibrated with a mixture of 95% O2 and 5% CO2, pH ~7.4.
After mounting the nerve-muscle preparation in the experimental setup, the contractile function of the muscle was initially assessed under the control conditions. Sub-maximal concentration of tubocurarine (115 nM), an acetylcholine receptor antagonist, was then added to the experimental bath to impose partial inhibition of the ability of the motor nerve to activate the muscle fibres. The experimental condition mimics the failing neuromuscular transmission in a range of neuromuscular disorders. After addition of tubocurarine the contractile force declined over the next 90 minutes to 10-50% of the control force. The test compound was then added to obtain the required compound concentration in the bath and the contractile force recovered was measured. To quantify the ability of the compound to restore force the percentage of the initial force that was restored was determined after 40 mins of compound exposure and the point increase is reported in Tables 3 to 7.

| Structure (SMILES) | activation at 10 µM [%] |
| --- | --- |
| CC1(C)CCc2cc(F)c(Cl)c(C(=O)O)c2O1 [Compound A-75, 7-Chloro-6-fluoro-2,2-dimethyl-8-chromancarboxylic acid] | 10 |
| O=C(O)c1c(Br)c(Cl)cc2c1CCCC2 [Compound A-66, 2-Bromo-3-chloro-5,6,7,8-tetrahydronaphthalene-1-carboxylic acid] | 25 |
| COc1c(Cl)cc2c(c1C(=O)O)CCCO2 [Compound A-79, 7-Chloro-6-methoxy-5-chromancarboxylic acid] | 34 |
| CN1CCCc2cc(F)c(Cl)c(C(=O)O)c21 [Compound A-77, 7-Chloro-6-fluoro-1-methyl-1,2,3,4-tetrahydro-8-quinolinecarboxylic acid] | 18 |
| O=C(O)c1c(Cl)c(Br)cc2c1CCCC2 [Compound A-67, 3-bromo-2-chloro-5,6,7,8-tetrahydronaphthalene-1-carboxylic acid] | 25 |
| CCOc1c(Cl)cc2c(c1C(=O)O)CCCC2 [Compound A-82, 3-Chloro-2-ethoxy-5,6,7,8-tetrahydro-1-naphthoic acid] | 61 |

Same assay, conditions: 40 min, 25 μM of test compound, after 40 mins of compound exposure, tubocurarine (115 nM) for 90 minutes, read-out: Point increase (%): percentage increase of initial force that was restored

| Structure (SMILES) | activation at 25 µM [%] |
| --- | --- |
| O=C(O)c1c(F)c(Cl)cc2c1CCN2Cc1ccccc1 [Compound A-76, 1-Benzyl-6-chloro-5-fluoro-4-indolinecarboxylic acid] | 45 |
| O=C(O)c1c(F)c(Cl)cc2c1OCCC2Cc1ccccc1 (stereo not drawn) [Compound A-78, 4-Benzyl-6-chloro-7-fluoro-8-chromancarboxylic acid] | 35 |
| O=C(O)c1c(Cl)c(F)cc2c1CCC2 [Compound A-62, 5-Chloro-6-fluoro-2,3-dihydro-1H-indene-4-carboxylic acid] | 14 |
| O=C(O)c1c(Cl)c(F)cc2c1SCCC2 [Compound A-64, 7-Chloro-6-fluoro-3,4-dihydro-2H-1-benzothiopyran-8-carboxylic acid] | 34 |

Same assay, conditions: 40 min, 50 μM of test compound, after 40 mins of compound exposure, tubocurarine (115 nM) for 90 minutes, read-out: Point increase (%): percentage increase of initial force that was restored

| Structure (SMILES) | activation at 50 µM [%] |
| --- | --- |
| O=C(O)c1c2c(cc(Cl)c1OCF)CCC2 [Compound A-7, 6-Chloro-5-(fluoromethoxy)-2,3-dihydro-1H-indene-4-carboxylic acid] | 36 |
| Cc1c(Cl)cc2c(c1C(=O)O)OCC2 [Compound A-12, 5-Chloro-6-methyl-2,3-dihydro-1-benzofuran-7-carboxylic acid] | 19 |
| COc1cc2c(c(C(=O)O)c1F)OCCC2Cc1ccccc1 (stereo not drawn) [Compound A-80, 4-Benzyl-7-fluoro-6-methoxy-8-chromancarboxylic acid] | 22 |
| O=C(O)c1c(F)c(C(F)(F)F)cc2c1CCCC2 [Compound A-60, 2-Fluoro-3-(trifluoromethyl)-5,6,7,8-tetrahydronaphthalene-1-carboxylic acid] | 21 |
| COc1c(F)cc2c(c1C(=O)O)C(Cc1ccccc1)CCO2 (stereo not drawn) [Compound A-81, 4-Benzyl-7-fluoro-6-methoxy-5-chromancarboxylic acid] | 19 |
| O=C(O)c1c2c(cc(Cl)c1OC(F)(F)F)CCC2 [Compound A-11, 6-Chloro-5-(trifluoromethoxy)-2,3-dihydro-1H-indene-4-carboxylic acid] | 31 |
| Cc1cc2c(c(C(=O)O)c1F)CCCO2 [Compound A-58, 6-Fluoro-7-methyl-3,4-dihydro-2H-1-benzopyran-5-carboxylic acid] | 48 |
| O=C(O)c1c(F)c(I)cc2c1CCCC2 [Compound A-55, 2-Fluoro-3-iodo-5,6,7,8-tetrahydronaphthalene-1-carboxylic acid] | 42 |
| Cc1c(Br)cc2c(c1C(=O)O)CCC2 [Compound A-2, 6-Bromo-5-methyl-2,3-dihydro-1H-indene-4-carboxylic acid] | 19 |

Same assay, conditions: 40 min, 100 μM of test compound, after 40 mins of compound exposure, tubocurarine (115 nM) for 90 minutes, read-out: Point increase (%): percentage increase of initial force that was restored

| Structure (SMILES) | activation at 100 µM [%] |
| --- | --- |
| CN1CCCc2c1cc(Cl)c(F)c2C(=O)O [Compound A-45, 7-Chloro-6-fluoro-1-methyl-1,2,3,4-tetrahydroquinoline-5-carboxylic acid] | 38 |
| O=C(O)c1c(Cl)c(Cl)cc2c1CN(Cc1ccccc1)C2 [Compound A-68, 2-Benzyl-5,6-dichloro-2,3-dihydro-1H-isoindole-4-carboxylic acid] | 40 |

Reference: patent US20260199273A1, “Compounds for the Treatment of Neuromuscular Disorders” (NMD PHARMA A/S, priority 2022, published 2026)
